Source: PubChem BioAssay AID1963844 (Molecular Pharmacology Branch, DTP, NCI, 2024)

System: 422866-222-R5-J1-PDC complex spheroid viability
Assay: Anticancer human tumor 422866-222-R5-J1-PDC patient-derived pancreatic adenocarcinoma cell line growth inhibition [POLQ]
Details: for IC50: curve of first compound; for viability, T/C: stronger effect = lower value
Method in brief: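 Patient-derived tumour cells were co-cultured with HUVEC and mesenchymal stem cells as multicellular spheroids at 37 °C. They were treated with POLQ inhibitors (novobiocin, ART-558, RP6685) alone or combined with other agents. Top concentrations were at or near clinical Cmax (otherwise 10 microM; SN-38 at 1 microM), decreasing in half-log steps.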

[1] = second compound 0.0316 µM, first compound 0.0316 µM
[2] = second compound 0.0316 µM, first compound 0.1 µM
[3] = second compound 0.0316 µM, first compound 0.316 µM
[4] = second compound 0.0316 µM, first compound 1 µM
[5] = second compound 0.0316 µM, first compound 3.16 µM
[6] = second compound 0.0316 µM, first compound 10 µM
[7] = second compound 0.1 µM, first compound 0.0316 µM
[8] = second compound 0.1 µM, first compound 0.1 µM
[9] = second compound 0.1 µM, first compound 0.316 µM
[10] = second compound 0.1 µM, first compound 1 µM
[11] = second compound 0.1 µM, first compound 3.16 µM
[12] = second compound 0.1 µM, first compound 10 µM
[13] = second compound 0.316 µM, first compound 0.0316 µM
[14] = second compound 0.316 µM, first compound 0.1 µM
[15] = second compound 0.316 µM, first compound 0.316 µM
[16] = second compound 0.316 µM, first compound 1 µM
[17] = second compound 0.316 µM, first compound 3.16 µM
[18] = second compound 0.316 µM, first compound 10 µM
[19] = second compound 1 µM, first compound 0.0316 µM
[20] = second compound 1 µM, first compound 0.1 µM
[21] = second compound 1 µM, first compound 0.316 µM
[22] = second compound 1 µM, first compound 1 µM
[23] = second compound 1 µM, first compound 3.16 µM
[24] = second compound 1 µM, first compound 10 µM
[25] = second compound 3.16 µM, first compound 0.0316 µM
[26] = second compound 3.16 µM, first compound 0.1 µM
[27] = second compound 3.16 µM, first compound 0.316 µM
[28] = second compound 3.16 µM, first compound 1 µM
[29] = second compound 3.16 µM, first compound 3.16 µM
[30] = second compound 3.16 µM, first compound 10 µM
[31] = second compound 10 µM, first compound 0.0316 µM
[32] = second compound 10 µM, first compound 0.1 µM
[33] = second compound 10 µM, first compound 0.316 µM
[34] = second compound 10 µM, first compound 1 µM
[35] = second compound 10 µM, first compound 3.16 µM
[36] = second compound 10 µM, first compound 10 µM
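Further: spheroids exposed to compounds for one week before readout.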
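Wherever viability, T/C is given: percent of DMSO vehicle wells luminescence so 100% = untreated viability.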

## CC(=O)O[C@H]1C(=O)[C@@]2(C)[C@H]([C@H](OC(=O)c3ccccc3)[C@]3(O)C[C@H](OC(=O)[C@H](O)[C@@H](NC(=O)c4ccccc4)c4ccccc4)C(C)=C1C3(C)C)[C@]1(OC(C)=O)CO[C@@H]1C[C@@H]2O + Cc1cccc(N(C)C(=O)C2C(O)CCN2c2nc(C)cc(C(F)(F)F)c2C#N)c1
Second compound 0.0316 µM
  IC50: < 0.00949 µM
Second compound 0.1 µM
  IC50: > 3 µM
Second compound 0.316 µM
  IC50: > 3 µM
Second compound 1 µM
  IC50: < 0.00949 µM
Second compound 3.16 µM
  IC50: > 3 µM
Second compound 10 µM
  IC50: < 0.00949 µM
Second compound 0.0316 µM, first compound 0.00949 µM
  viability, T/C: 48.8%
Second compound 0.0316 µM, first compound 0.03 µM
  viability, T/C: 47.8%
Second compound 0.0316 µM, first compound 0.0949 µM
  viability, T/C: 44.6%
Second compound 0.0316 µM, first compound 0.3 µM
  viability, T/C: 53%
Second compound 0.0316 µM, first compound 0.949 µM
  viability, T/C: 52.6%
Second compound 0.0316 µM, first compound 3 µM
  viability, T/C: 56%
Second compound 0.1 µM, first compound 0.00949 µM
  viability, T/C: 54%
Second compound 0.1 µM, first compound 0.03 µM
  viability, T/C: 47.9%
Second compound 0.1 µM, first compound 0.0949 µM
  viability, T/C: 58.1%
Second compound 0.1 µM, first compound 0.3 µM
  viability, T/C: 50.2%
Second compound 0.1 µM, first compound 0.949 µM
  viability, T/C: 49.4%
Second compound 0.1 µM, first compound 3 µM
  viability, T/C: 52.6%
Second compound 0.316 µM, first compound 0.00949 µM
  viability, T/C: 54%
Second compound 0.316 µM, first compound 0.03 µM
  viability, T/C: 51.9%
Second compound 0.316 µM, first compound 0.0949 µM
  viability, T/C: 55.2%
Second compound 0.316 µM, first compound 0.3 µM
  viability, T/C: 46.3%
Second compound 0.316 µM, first compound 0.949 µM
  viability, T/C: 52.3%
Second compound 0.316 µM, first compound 3 µM
  viability, T/C: 56.6%
Second compound 1 µM, first compound 0.00949 µM
  viability, T/C: 49.8%
Second compound 1 µM, first compound 0.03 µM
  viability, T/C: 41.3%
Second compound 1 µM, first compound 0.0949 µM
  viability, T/C: 51.9%
Second compound 1 µM, first compound 0.3 µM
  viability, T/C: 55.6%
Second compound 1 µM, first compound 0.949 µM
  viability, T/C: 50.9%
Second compound 1 µM, first compound 3 µM
  viability, T/C: 59.8%
Second compound 3.16 µM, first compound 0.00949 µM
  viability, T/C: 57.5%
Second compound 3.16 µM, first compound 0.03 µM
  viability, T/C: 46.9%
Second compound 3.16 µM, first compound 0.0949 µM
  viability, T/C: 59.7%
Second compound 3.16 µM, first compound 0.3 µM
  viability, T/C: 49.8%
Second compound 3.16 µM, first compound 0.949 µM
  viability, T/C: 57.8%
Second compound 3.16 µM, first compound 3 µM
  viability, T/C: 67.8%
Second compound 10 µM, first compound 0.00949 µM
  viability, T/C: 47.7%
Second compound 10 µM, first compound 0.03 µM
  viability, T/C: 48%
Second compound 10 µM, first compound 0.0949 µM
  viability, T/C: 42.9%
Second compound 10 µM, first compound 0.3 µM
  viability, T/C: 51.6%
Second compound 10 µM, first compound 0.949 µM
  viability, T/C: 64.9%
Second compound 10 µM, first compound 3 µM
  viability, T/C: 68.3%

## COc1cc2cc(C(=O)CCC(=O)O)sc2cc1OC + Nc1ccc(C#CCN(C(=O)Cc2ncc(C(F)(F)F)cc2C(F)(F)F)c2ccc(F)cc2)nn1
Second compound 0.0316 µM
  IC50: > 10 µM
Second compound 0.1 µM
  IC50: > 10 µM
Second compound 0.316 µM
  IC50: > 10 µM
Second compound 1 µM
  IC50: > 10 µM
Second compound 3.16 µM
  IC50: > 10 µM
Second compound 10 µM
  IC50: > 10 µM
[1]
  viability, T/C: 84%
[2]
  viability, T/C: 97.2%
[3]
  viability, T/C: 94.5%
[4]
  viability, T/C: 115%
[5]
  viability, T/C: 81.2%
[6]
  viability, T/C: 89.1%
[7]
  viability, T/C: 87.3%
[8]
  viability, T/C: 89.9%
[9]
  viability, T/C: 87.5%
[10]
  viability, T/C: 95.3%
[11]
  viability, T/C: 84%
[12]
  viability, T/C: 103%
[13]
  viability, T/C: 112%
[14]
  viability, T/C: 104%
[15]
  viability, T/C: 86.4%
[16]
  viability, T/C: 90.8%
[17]
  viability, T/C: 86.2%
[18]
  viability, T/C: 109%
[19]
  viability, T/C: 99.6%
[20]
  viability, T/C: 87.1%
[21]
  viability, T/C: 86.9%
[22]
  viability, T/C: 84.5%
[23]
  viability, T/C: 94.2%
[24]
  viability, T/C: 136%
[25]
  viability, T/C: 108%
[26]
  viability, T/C: 98.6%
[27]
  viability, T/C: 95%
[28]
  viability, T/C: 94.9%
[29]
  viability, T/C: 92.2%
[30]
  viability, T/C: 111%
[31]
  viability, T/C: 98%
[32]
  viability, T/C: 91.4%
[33]
  viability, T/C: 93.5%
[34]
  viability, T/C: 89.9%
[35]
  viability, T/C: 100%
[36]
  viability, T/C: 104%

## CC(C)n1c(=O)n(C)c2cnc3cc(F)c(-c4ccc(OCCCN5CCCCC5)nc4)cc3c21 + Nc1ccc(C#CCN(C(=O)Cc2ncc(C(F)(F)F)cc2C(F)(F)F)c2ccc(F)cc2)nn1
Second compound 0.0316 µM
  IC50: > 10 µM
Second compound 0.1 µM
  IC50: > 10 µM
Second compound 0.316 µM
  IC50: > 10 µM
Second compound 1 µM
  IC50: > 10 µM
Second compound 3.16 µM
  IC50: > 10 µM
Second compound 10 µM
  IC50: 9.87 µM
[1]
  viability, T/C: 116%
[2]
  viability, T/C: 116%
[3]
  viability, T/C: 90.3%
[4]
  viability, T/C: 99.3%
[5]
  viability, T/C: 90.7%
[6]
  viability, T/C: 62.2%
[7]
  viability, T/C: 88.6%
[8]
  viability, T/C: 102%
[9]
  viability, T/C: 97.5%
[10]
  viability, T/C: 88.3%
[11]
  viability, T/C: 82.8%
[12]
  viability, T/C: 66.2%
[13]
  viability, T/C: 114%
[14]
  viability, T/C: 109%
[15]
  viability, T/C: 95.1%
[16]
  viability, T/C: 105%
[17]
  viability, T/C: 71.8%
[18]
  viability, T/C: 53.3%
[19]
  viability, T/C: 107%
[20]
  viability, T/C: 110%
[21]
  viability, T/C: 108%
[22]
  viability, T/C: 91.2%
[23]
  viability, T/C: 85.2%
[24]
  viability, T/C: 59.1%
[25]
  viability, T/C: 100%
[26]
  viability, T/C: 105%
[27]
  viability, T/C: 114%
[28]
  viability, T/C: 76.4%
[29]
  viability, T/C: 71.3%
[30]
  viability, T/C: 60.8%
[31]
  viability, T/C: 96.8%
[32]
  viability, T/C: 110%
[33]
  viability, T/C: 87.9%
[34]
  viability, T/C: 92.5%
[35]
  viability, T/C: 94.4%
[36]
  viability, T/C: 49.5%
